# Test results published in US7592188B2, “Live cell biosensors” (The Scripps Research Institute, priority 2004, dated 2009).
# Experiments:
# [1] = Photophysical properties of dyes in various solvents (absorbance, emission, quantum yield); assay type: physicochemical; set-up: ε × F / ε × Φ: unit not given here
# Protocol: Analytical grade reagents were purchased from major suppliers. […] Emission and excitation spectra were obtained using a Spex Fluorolog 2 spectrofluorometer at 23° C. […] Demas et al., J. Phys. […] All operations with dyes were performed under dim light. Flasks containing dyes were wrapped with aluminum foil.
# [2] = Water solubility and aggregation of dyes in water (absorbance spectra); conditions: in water, absorbance spectrum
# Text: Labeling was accomplished only by including greater than 5% DMSO as cosolvent.
# [3] = test system: Cdc42 activation; assay: Peripheral Cdc42 activation in cells treated with cytoskeletal agents; assay type: cell-based
# Text: Microtubules or actin may direct Cdc42 activation to specific peripheral locations. This possibility was explored by treating cells with the microtubule-depolymerizing agents nocodazole and colchicine, or with cytochalasin D, an inhibitor of actin polymerization. […] Microtubules may therefore localize interactions between Cdc42 and guanine nucleotide exchange factors by directing vesicle trafficking or regulating events at adhesion complexes.
# [4] = Dye photo-bleaching under tungsten lamp irradiation; assay type: physicochemical
# Protocol: Photo-bleaching. All samples contained 1 mM dye in a final volume of 10 mL. For nitrogen and oxygen saturation the samples were bubbled with solvent-saturated gas for 30 min. A 90 W halogen tungsten lamp was employed for irradiation, with a fan used for cooling. The temperature of samples was 25±1° C. during reactions. The absorption spectrum of each sample was measured before irradiation and after every 10 h period. For the trapping experiment thioanisole (1.0 M) was added to oxygen-saturated butanol solution of dye 1b. After 60 h of irradiation the reaction mixture was analyzed by GC-MS for products formed. The products, methylphenylsulfoxide and methylphenyl sulfone, were identified by comparison with authentic samples.
# Dyes used in living cells must be photostable to provide many sequential images and to obtain sufficient light from minimal amounts of exogenous labeled material. The photostability of the new dyes was characterized by exposing them to constant illumination from a tungsten lamp filtered through glass, a broad spectrum light source that provided essentially equal intensity throughout the spectral range where the dyes would be irradiated in vivo. A fan was used to prevent heating, and dye solutions were adjusted for equal maximal absorbance, kept below 1 μM to minimize the inner filter effect. […] Photo-bleaching followed first-order kinetics in all cases.
compound,measurement,setting,value
"Sodium 3-[(2E)-6-[({2-[(2,5-Dioxopyrrolidin-1-yl)oxy]-2-oxoethoxy}-acetyl)methylaminol]-2-[(2E,4Z)-4-(1,1-dioxido-3-oxo-1-benzothien-2(3H)-ylidene)but-2-enylidene]-1,3-benzothiazol-3(2H)-yl]propane-1-sulfonate [dye 2f]",Emission λmax,"[1]; reactive forms, solvent BuOH",626 nm
same,absorption λmax,"[1]; reactive forms, solvent BuOH",608 nm
same,Φ (quantum yield of fluorescence),"[1]; reactive forms, solvent BuOH",0.12
same,ε (molar extinction coefficient),"[1]; reactive forms, solvent BuOH",(134000)
same,Emission λmax,"[1]; reactive forms, solvent H2O",618 nm
same,Emission λmax,"[1]; reactive forms, solvent MeOH",621 nm
same,absorption λmax,"[1]; reactive forms, solvent MeOH",603 nm
same,Φ (quantum yield of fluorescence),"[1]; reactive forms, solvent MeOH",0.06
same,ε (molar extinction coefficient),"[1]; reactive forms, solvent MeOH",(142000)
"O=C(CSCCO)Nc1ccc2c(c1)S\C(=C/C=C/C=C1/C(=O)c3ccccc3S1(=O)=O)N2CCCS(=O)(=O)[O-].[Na+] [dye 2g, Sodium 3-[(2Z)-6-({[(2-Hydroxyethyl)thio]acetyl}amino)-2-[(2E,4Z)-4-(1,1-dioxido-3-oxo-1-benzothien-2(3H)-ylidene)but-2-enylidene]-1,3-benzothiazol-3(2H)-yl]propane-1-sulfonate]",quantum yield after reaction with β-mercaptoethanol relative to underivatized fluorophore,[1],returned the quantum yield of S—SO to that of the underivatized fluorophore
same,Emission λmax,"[1]; reactive forms, solvent MeOH",629 nm
same,absorption λmax,"[1]; reactive forms, solvent MeOH",610 nm
same,Φ (quantum yield of fluorescence),"[1]; reactive forms, solvent MeOH",0.054
same,ε (molar extinction coefficient),"[1]; reactive forms, solvent MeOH",(138000)
same,ε × Φ,"[1]; reactive forms, solvent MeOH",8000
"Sodium 3-{(2Z)-5-2-[(2E,4Z)-4-(1,1-Dioxido-3-oxo-1-benzothien-2(3H)-ylidene)but-2-enylidene]-3,3-dimethyl-2,3-dihydro-1H-indol-1-yl}propane-1-sulfonate [dye 4b]",concentration at which dye did not aggregate,[2],greater than 250 μM
C=C1[C@@H](C)[C@H]2[C@H](Cc3ccccc3)NC(=O)[C@]23[C@H](OC(C)=O)/C=C/[C@@](C)(O)C(=O)[C@@H](C)C/C=C/[C@H]3[C@@H]1O [cytochalasin D],effect on peripheral Cdc42 activation,[3],Only nocodazole and colchicine markedly affected peripheral Cdc42 activation
"CC1(C)/C(=C/C=C/C=C2/C(=O)c3ccccc3S2(=O)=O)N(CCCS(=O)(=O)[O-])c2ccc(NC(=O)CI)cc21.[Na+] [dye 4e, Sodium 3-{(2Z)-5-[(Iodoacetyl)amino]-2-[(2E,4Z)-4-(1,1-dioxido-3-oxo-1-benzothien-2(3H)-ylidene)but-2-enylidene]-3,3-dimethyl-2,3-dihydro-1H-indol-1-yl}propane-1-sulfonate]",Emission λmax,"[1]; reactive forms, solvent BuOH",639 nm
same,absorption λmax,"[1]; reactive forms, solvent BuOH",607 nm
same,Φ (quantum yield of fluorescence),"[1]; reactive forms, solvent BuOH",0.06
same,ε (molar extinction coefficient),"[1]; reactive forms, solvent BuOH",(150000)
same,ε × Φ,"[1]; reactive forms, solvent BuOH",9000
same,Emission λmax,"[1]; reactive forms, solvent H2O",630 nm
same,absorption λmax,"[1]; reactive forms, solvent H2O",599 nm
same,Φ (quantum yield of fluorescence),"[1]; reactive forms, solvent H2O",0.004
same,ε (molar extinction coefficient),"[1]; reactive forms, solvent H2O",(143000)
same,ε × Φ,"[1]; reactive forms, solvent H2O",600
same,Emission λmax,"[1]; reactive forms, solvent MeOH",634 nm
same,absorption λmax,"[1]; reactive forms, solvent MeOH",601 nm
same,Φ (quantum yield of fluorescence),"[1]; reactive forms, solvent MeOH",0.01
same,ε (molar extinction coefficient),"[1]; reactive forms, solvent MeOH",(138000)
same,ε × Φ,"[1]; reactive forms, solvent MeOH",1400
COC(=O)Nc1nc2ccc(C(=O)c3cccs3)cc2[nH]1 [nocodazole],effect on peripheral Cdc42 activation,[3],markedly affected peripheral Cdc42 activation
"CN1\C(=C/C=C/C=C2/C(=O)c3ccccc3S2(=O)=O)C(C)(C)c2ccccc21 [dye 4a, (2Z)-2-[(2E,4Z)-4-(1,3,3-Trimethyl-1,3-dihydro-2H-indol-2-ylidene)-but-2-enylidene]-1-benzothiophen-3(2H)-one 1,1-Dioxide]",Abs. λmax,[1]; solvent BuOH,587 nm
same,Emission λmax,[1]; solvent BuOH,618 nm
same,Φ (quantum yield of fluorescence),[1]; solvent BuOH,0.54
same,ε (molar extinction coefficient),[1]; solvent BuOH,(134000)
same,ε × F,[1]; solvent BuOH,72000
same,Abs. λmax,[1]; solvent C6H6,571 nm
same,Emission λmax,[1]; solvent C6H6,603 nm
same,Φ (quantum yield of fluorescence),[1]; solvent C6H6,0.42
same,ε (molar extinction coefficient),[1]; solvent C6H6,(109000)
same,ε × F,[1]; solvent C6H6,46000
same,Abs. λmax,[1]; solvent DMF,586 nm
same,Emission λmax,[1]; solvent DMF,615 nm
same,Φ (quantum yield of fluorescence),[1]; solvent DMF,0.97
same,ε (molar extinction coefficient),[1]; solvent DMF,(143000)
same,ε × F,[1]; solvent DMF,140000
same,Abs. λmax,[1]; solvent MeOH,586 nm
same,Emission λmax,[1]; solvent MeOH,615 nm
same,Φ (quantum yield of fluorescence),[1]; solvent MeOH,0.08
same,ε (molar extinction coefficient),[1]; solvent MeOH,(143000)
same,ε × F,[1]; solvent MeOH,12000
same,Abs. λmax,[1]; solvent OcOH,587 nm
same,Emission λmax,[1]; solvent OcOH,617 nm
same,Φ (quantum yield of fluorescence),[1]; solvent OcOH,0.98
same,ε (molar extinction coefficient),[1]; solvent OcOH,(125000)
same,ε × F,[1]; solvent OcOH,123000
same,"Absolute rate constant of dye photo-bleaching, kph × 10^6",[4]; BuOH,0.65 s^−1
same,"Absolute rate constant of dye photo-bleaching, kph × 10^6",[4]; MeOH,0.28 s^−1
"O=C(CI)Nc1ccc2c(c1)S/C(=C/C=C/C=C1/C(=O)c3ccccc3S1(=O)=O)N2CCCS(=O)(=O)[O-].[Na+] [dye 2e, Sodium 3-[(2E)-6-[(Iodoacetyl)amino]-2-[(2E,4Z)-4-(1,1-dioxido-3-oxo-1-benzothien-2(3H)-ylidene)but-2-enylidene]-1,3-benzothiazol-3(2H)-yl]propane-1-sulfonate]",Emission λmax,"[1]; reactive forms, solvent BuOH",636 nm
same,absorption λmax,"[1]; reactive forms, solvent BuOH",618 nm
same,Φ (quantum yield of fluorescence),"[1]; reactive forms, solvent BuOH",0.06
same,ε (molar extinction coefficient),"[1]; reactive forms, solvent BuOH",(160000)
same,ε × Φ,"[1]; reactive forms, solvent BuOH",9600
same,Emission λmax,"[1]; reactive forms, solvent H2O",618 nm
same,Emission λmax,"[1]; reactive forms, solvent MeOH",628 nm
same,absorption λmax,"[1]; reactive forms, solvent MeOH",610 nm
same,Φ (quantum yield of fluorescence),"[1]; reactive forms, solvent MeOH",0.034
same,ε (molar extinction coefficient),"[1]; reactive forms, solvent MeOH",(140000)
same,ε × Φ,"[1]; reactive forms, solvent MeOH",3000
"CC1(C)\C(=C/C=C/C=C2/C(=O)c3ccccc3S2(=O)=O)N(CCCS(=O)(=O)[O-])c2ccc(NC(=O)CSCCO)cc21.[Na+] [dye 4g, Sodium 3-{(2E)-5-({[(2-Hydroxyethyl)thio]acetyl}amino)-2-[(2E,4Z)-4-(1,1-dioxido-3-oxo-1-benzothien-2(3H)-ylidene)but-2-enylidene]-3,3-dimethyl-2,3-dihydro-2,3-dihydro-1H-indol-1-yl}propane-1-sulfonate]",quantum yield after reaction with β-mercaptoethanol relative to underivatized fluorophore,[1],half that of the unaltered fluorophore
same,Emission λmax,"[1]; reactive forms, solvent BuOH",628 nm
same,absorption λmax,"[1]; reactive forms, solvent BuOH",609 nm
same,Φ (quantum yield of fluorescence),"[1]; reactive forms, solvent BuOH",0.12
same,ε (molar extinction coefficient),"[1]; reactive forms, solvent BuOH",(142000)
same,ε × Φ,"[1]; reactive forms, solvent BuOH",17000
same,Emission λmax,"[1]; reactive forms, solvent H2O",620 nm
same,absorption λmax,"[1]; reactive forms, solvent H2O",600 nm
same,Φ (quantum yield of fluorescence),"[1]; reactive forms, solvent H2O",0.02
same,ε (molar extinction coefficient),"[1]; reactive forms, solvent H2O",(140000)
same,ε × Φ,"[1]; reactive forms, solvent H2O",3000
same,Emission λmax,"[1]; reactive forms, solvent MeOH",621 nm
same,absorption λmax,"[1]; reactive forms, solvent MeOH",601 nm
same,Φ (quantum yield of fluorescence),"[1]; reactive forms, solvent MeOH",0.04
same,ε (molar extinction coefficient),"[1]; reactive forms, solvent MeOH",(140000)
same,ε × Φ,"[1]; reactive forms, solvent MeOH",6000
COc1cc2c(c(OC)c1OC)-c1ccc(OC)c(=O)cc1[C@@H](NC(C)=O)CC2 [colchicine],effect on peripheral Cdc42 activation,[3],markedly affected peripheral Cdc42 activation
"CN(C(=O)COCC(=O)ON1C(=O)CCC1=O)c1ccc2c(c1)C(C)(C)/C(=C/C=C/C=C1/C(=O)c3ccccc3S1(=O)=O)N2CCCS(=O)(=O)[O-].[Na+] [dye 4f, Sodium 3-{(2Z)-5-[({2-[(2,5-Dioxopyrrolidin-1-yl)oxy]-2-oxoethoxy}acetyl)methylamino]-2-[(2E,4Z)-4-(1,1-dioxido-3-oxo-1-benzothien-2(3H)-ylidene)but-2-enylidene]-3,3-dimethyl-2,3-dihydro-1H-indol-1-yl}propane-1-sulfonate]",Emission λmax,"[1]; reactive forms, solvent BuOH",623 nm
same,absorption λmax,"[1]; reactive forms, solvent BuOH",590 nm
same,Φ (quantum yield of fluorescence),"[1]; reactive forms, solvent BuOH",0.19
same,ε (molar extinction coefficient),"[1]; reactive forms, solvent BuOH",(134000)
same,ε × Φ,"[1]; reactive forms, solvent BuOH",26000
same,Emission λmax,"[1]; reactive forms, solvent H2O",616 nm
same,absorption λmax,"[1]; reactive forms, solvent H2O",594 nm
same,Φ (quantum yield of fluorescence),"[1]; reactive forms, solvent H2O",0.01
same,ε (molar extinction coefficient),"[1]; reactive forms, solvent H2O",(150000)
same,ε × Φ,"[1]; reactive forms, solvent H2O",1500
same,Emission λmax,"[1]; reactive forms, solvent MeOH",620 nm
same,absorption λmax,"[1]; reactive forms, solvent MeOH",586 nm
same,Φ (quantum yield of fluorescence),"[1]; reactive forms, solvent MeOH",0.05
same,ε (molar extinction coefficient),"[1]; reactive forms, solvent MeOH",(140000)
same,ε × Φ,"[1]; reactive forms, solvent MeOH",7000
"CCN1\C(=C/C=C/C=C2/C(=O)c3ccccc3S2(=O)=O)Sc2ccccc21 [dye 2a, (2Z)-2-[(2E,4E)-4-(3-Ethyl-1,3-benzothiazol-2(3H)-ylidene)but-2-enylidene]-1-benzothiophen-3(2H)-one 1,1-Dioxide]",Abs. λmax,[1]; solvent BuOH,604 nm
same,Emission λmax,[1]; solvent BuOH,622 nm
same,Φ (quantum yield of fluorescence),[1]; solvent BuOH,0.12
same,ε (molar extinction coefficient),[1]; solvent BuOH,(163000)
same,ε × F,[1]; solvent BuOH,20000
same,Abs. λmax,[1]; solvent C6H6,591 nm
same,Emission λmax,[1]; solvent C6H6,617 nm
same,Φ (quantum yield of fluorescence),[1]; solvent C6H6,0.16
same,ε (molar extinction coefficient),[1]; solvent C6H6,(152000)
same,ε × F,[1]; solvent C6H6,24000
same,Abs. λmax,[1]; solvent DMF,602 nm
same,Emission λmax,[1]; solvent DMF,619 nm
same,Φ (quantum yield of fluorescence),[1]; solvent DMF,0.22
same,ε (molar extinction coefficient),[1]; solvent DMF,(173000)
same,ε × F,[1]; solvent DMF,38000
same,Abs. λmax,[1]; solvent MeOH,598 nm
same,Emission λmax,[1]; solvent MeOH,617 nm
same,Φ (quantum yield of fluorescence),[1]; solvent MeOH,0.05
same,ε (molar extinction coefficient),[1]; solvent MeOH,(143000)
same,ε × F,[1]; solvent MeOH,7000
same,Abs. λmax,[1]; solvent OcOH,606 nm
same,Emission λmax,[1]; solvent OcOH,623 nm
same,Φ (quantum yield of fluorescence),[1]; solvent OcOH,0.17
same,ε (molar extinction coefficient),[1]; solvent OcOH,(168000)
same,ε × F,[1]; solvent OcOH,29000
same,"Absolute rate constant of dye photo-bleaching, kph × 10^6",[4]; BuOH,5.2 s^−1
same,"Absolute rate constant of dye photo-bleaching, kph × 10^6",[4]; MeOH,3.0 s^−1
